Key:
Mus musculus [1] = organism: Mus musculus; assay: animal or person; conditions: C57BL/6, po, 672 h, read-out: INH
Description: Anti-fibrotic activity in C57BL/6 mouse model of bleomycin-induced skin fibrosis assessed as inhibition of collagen production by measuring reduction in hydroxyproline content at 2 mg/kg, po administered once daily via gavage for 28 days measured post last dose relative to control

[2] = biological target: Lysophosphatidic acid receptor 1 (Homo sapiens, UniProt Q92633); assay: Antagonist activity at human LPA1 receptor stably expressed in rat RH7777 cells assessed as reduction in LPA-induced intracellular Ca2+ concentration preincubated for 30 mins followed by LPA addition measured by Fluo-4 probe based fluorescence assay
[3] = biological target: Lysophosphatidic acid receptor 1 (Mus musculus) (UniProt P61793); assay: In vivo antagonist activity at LPA1 receptor in C57BL/6J mouse assessed as inhibition of LPA-induced histamine release from mast cells at 10 mg/kg, po administered via gavage and measured after 4 hrs by enzyme immunoassay relative to control; type: functional, organism-based
Sequence of Lysophosphatidic acid receptor 1 (Mus musculus) (P61793 whole entry): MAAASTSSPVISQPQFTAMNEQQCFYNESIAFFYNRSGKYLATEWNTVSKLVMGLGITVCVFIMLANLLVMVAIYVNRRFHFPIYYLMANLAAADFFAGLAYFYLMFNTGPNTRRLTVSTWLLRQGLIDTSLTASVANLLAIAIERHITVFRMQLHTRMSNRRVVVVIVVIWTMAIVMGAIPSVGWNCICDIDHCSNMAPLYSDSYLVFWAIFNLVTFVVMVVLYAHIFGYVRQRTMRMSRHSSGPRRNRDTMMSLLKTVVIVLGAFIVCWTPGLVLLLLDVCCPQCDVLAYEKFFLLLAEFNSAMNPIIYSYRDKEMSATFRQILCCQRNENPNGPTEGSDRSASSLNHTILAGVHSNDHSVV

[4] = Plasma concentration in LPA-induced C57BL/6J mouse at 30 mg/kg, po administered via gavage and measured after 1 hr by LC-MS/MS analysis; type: ADME, organism-based
Mus musculus [5] = organism: Mus musculus; assay: animal or person; conditions: C57BL/6, po, 672 h, read-out: INH; remark: listed apart in the source
Description: Anti-fibrotic activity in C57BL/6 mouse model of bleomycin-induced skin fibrosis assessed as inhibition of collagen production by measuring reduction in hydroxyproline content at 30 mg/kg, po administered twice daily via gavage for 28 days measured post last dose relative to control

[6] = biological target: Lysophosphatidic acid receptor 1 (Mus musculus) (UniProt P61793); assay: In vivo antagonist activity at LPA1 receptor in C57BL/6J mouse assessed as inhibition of LPA-induced histamine release from mast cells at 30 mg/kg, po administered via gavage and measured after 8 hrs by enzyme immunoassay relative to control; type: functional, organism-based
[7] = Plasma concentration in LPA-induced C57BL/6J mouse at 100 mg/kg, po administered via gavage and measured after 4 hrs by LC-MS/MS analysis; type: ADME, organism-based
[8] = biological target: Lysophosphatidic acid receptor 1 (Mus musculus) (UniProt P61793); assay: In vivo antagonist activity at LPA1 receptor in C57BL/6J mouse assessed as inhibition of LPA-induced histamine release from mast cells at 10 mg/kg, po administered via gavage and measured after 8 hrs by enzyme immunoassay relative to control; type: functional, organism-based
[9] = Plasma concentration in LPA-induced C57BL/6J mouse at 30 mg/kg, po administered via gavage and measured after 4 hrs by LC-MS/MS analysis; type: ADME, organism-based
Mus musculus [10] = assay: Anti-fibrotic activity in po dosed C57BL/6 mouse model of bleomycin-induced skin fibrosis assessed as inhibition of collagen production by measuring reduction in hydroxyproline content administered twice daily via gavage for 28 days measured post last dose; type: functional, organism-based; conditions: dose 10-100 mg/kg, time 28.0 day
[11] = biological target: Lysophosphatidic acid receptor 1 (Mus musculus) (UniProt P61793); assay: In vivo antagonist activity at LPA1 receptor in C57BL/6J mouse assessed as inhibition of LPA-induced histamine release from mast cells at 30 mg/kg, po administered via gavage and measured after 1 hr by enzyme immunoassay relative to control; type: functional, organism-based
[12] = Plasma concentration in LPA-induced C57BL/6J mouse at 100 mg/kg, po administered via gavage and measured after 1 hr by LC-MS/MS analysis; type: ADME, organism-based
[13] = biological target: Lysophosphatidic acid receptor 1 (Mus musculus) (UniProt P61793); assay: In vivo antagonist activity at LPA1 receptor in C57BL/6J mouse assessed as inhibition of LPA-induced histamine release from mast cells at 100 mg/kg, po administered via gavage and measured after 1 hr by enzyme immunoassay relative to control; type: functional, organism-based
[14] = biological target: Lysophosphatidic acid receptor 1 (Mus musculus) (UniProt P61793); assay: In vivo antagonist activity at LPA1 receptor in C57BL/6J mouse assessed as inhibition of LPA-induced histamine release from mast cells at 100 mg/kg, po administered via gavage and measured after 8 hrs by enzyme immunoassay relative to control; type: functional, organism-based
Mus musculus [15] = organism: Mus musculus; assay: animal or person; conditions: C57BL/6, po, 672 h, read-out: INH; remark: listed apart in the source
Description: Anti-fibrotic activity in C57BL/6 mouse model of bleomycin-induced skin fibrosis assessed as inhibition of collagen production by measuring reduction in hydroxyproline content at 10 mg/kg, po administered twice daily via gavage for 28 days measured post last dose relative to control

Mus musculus [16] = assay: Anti-hypertrophic activity in po dosed C57BL/6 mouse model of bleomycin-induced skin fibrosis assessed as reduction in skin thickness administered twice daily via gavage for 28 days measured post last dose by caliper method; type: functional, organism-based; conditions: dose 10-100 mg/kg, time 28.0 day
[17] = biological target: Lysophosphatidic acid receptor 1 (Mus musculus) (UniProt P61793); assay: In vivo antagonist activity at LPA1 receptor in C57BL/6J mouse assessed as inhibition of LPA-induced histamine release from mast cells at 10 mg/kg, po administered via gavage and measured after 1 hr by enzyme immunoassay relative to control; type: functional, organism-based
[18] = Plasma concentration in LPA-induced C57BL/6J mouse at 10 mg/kg, po administered via gavage and measured after 8 hrs by LC-MS/MS analysis; type: ADME, organism-based
[19] = Plasma concentration in LPA-induced C57BL/6J mouse at 30 mg/kg, po administered via gavage and measured after 8 hrs by LC-MS/MS analysis; type: ADME, organism-based
[20] = Plasma concentration in LPA-induced C57BL/6J mouse at 10 mg/kg, po administered via gavage and measured after 1 hr by LC-MS/MS analysis; type: ADME, organism-based
[21] = Plasma concentration in LPA-induced C57BL/6J mouse at 100 mg/kg, po administered via gavage and measured after 8 hrs by LC-MS/MS analysis; type: ADME, organism-based
[22] = biological target: Lysophosphatidic acid receptor 1 (Mus musculus) (UniProt P61793); assay: In vivo antagonist activity at LPA1 receptor in C57BL/6J mouse assessed as inhibition of LPA-induced histamine release from mast cells at 30 mg/kg, po administered via gavage and measured after 4 hrs by enzyme immunoassay relative to control; type: functional, organism-based
[23] = biological target: Lysophosphatidic acid receptor 1 (Mus musculus) (UniProt P61793); assay: In vivo antagonist activity at LPA1 receptor in C57BL/6J mouse assessed as inhibition of LPA-induced histamine release from mast cells at 100 mg/kg, po administered via gavage and measured after 4 hrs by enzyme immunoassay relative to control; type: functional, organism-based
Mus musculus [24] = organism: Mus musculus; assay: animal or person; conditions: C57BL/6, po, 672 h, read-out: INH; remark: listed apart in the source
Description: Anti-fibrotic activity in C57BL/6 mouse model of bleomycin-induced skin fibrosis assessed as inhibition of collagen production by measuring reduction in hydroxyproline content at 100 mg/kg, po administered twice daily via gavage for 28 days measured post last dose relative to control

[25] = Plasma concentration in LPA-induced C57BL/6J mouse at 10 mg/kg, po administered via gavage and measured after 4 hrs by LC-MS/MS analysis; type: ADME, organism-based

Sequence of Lysophosphatidic acid receptor 1 (Q92633 whole entry): as the sequence (P61793 whole entry) above, with A4I, S8I, Q22P, Y40H, V61I, D193E, H194N, V269I, N331S, N335T counted along it

C[C@]12C=CC(=O)C=C1CC[C@@H]1[C@@H]2C(=O)C[C@@]2(C)[C@H]1CC[C@]2(O)C(=O)CO [PREDNISONE]
inhibition in vivo at 2 mg/kg (Mus musculus [1]): 63%

COc1cc(CN(CCCCc2ccccc2)C(=O)N[C@H](CC(C)C)C(=O)O)cc(OC)c1C
IC50 [2]: 3.66 µM

COc1cc([C@@H](C)N(CCCCCc2ccccc2)C(=O)NC2(C(=O)O)CC(F)(F)C2)cc(OC)c1C
IC50 [2]: 0.586 µM

COc1cc(CN(CCCCc2ccccc2)C(=O)NC2(C(=O)O)CC2)cc(OC)c1C
IC50 [2]: 2.75 µM

COc1cc([C@@H](C)N(CCCCc2ccccc2)C(=O)NC2(C(=O)O)CC(F)(F)C2)cc(OC)c1C
inhibition [3]: 36%
concentration at 1 h [4]: 4240 ng/mL
inhibition in vivo at 30 mg/kg (Mus musculus [5]): 49%
inhibition [6]: 44%
concentration at 4 h [7]: 7160 ng/mL
inhibition [8]: 2%
concentration at 4 h [9]: 805 ng/mL
inhibition (Mus musculus [10]): Dose-Dependent Effect
inhibition [11]: 94%
concentration at 1 h [12]: 12100 ng/mL
inhibition [13]: 95%
inhibition [14]: 77%
inhibition in vivo at 10 mg/kg (Mus musculus [15]): 22%
Activity (Mus musculus [16]): Dose-Dependent Effect
inhibition [17]: 58%
concentration at 8 h [18]: 175 ng/mL
concentration at 8 h [19]: 596 ng/mL
concentration at 1 h [20]: 892 ng/mL
concentration at 8 h [21]: 2460 ng/mL
inhibition [22]: 66%
inhibition [23]: 94%
inhibition in vivo at 100 mg/kg (Mus musculus [24]): 77%
concentration at 4 h [25]: 252 ng/mL

COc1cc(CN(CCCCc2ccccc2)C(=O)NC2(C(=O)O)CCCC2)cc(OC)c1C
IC50 [2]: 1.79 µM

COc1cc([C@@H](C)N(CCCc2ccccc2)C(=O)NC2(C(=O)O)CC(F)(F)C2)cc(OC)c1C
IC50 [2]: 0.0514 µM

COc1cc([C@H](C)N(CCCCc2ccccc2)C(=O)NC2(C(=O)O)CC(F)(F)C2)cc(OC)c1C
IC50 [2]: 0.47 µM

COc1cc(CN(CCCCc2ccccc2)C(=O)NC(C)(C)C(=O)O)cc(OC)c1C
IC50 [2]: 2.14 µM

COc1cc(CN(CCCCc2ccccc2)C(=O)NC2(C(=O)O)CCCCC2)cc(OC)c1C
IC50 [2]: 2.15 µM
